For orientation: IC50 means the midpoint of a concentration-inhibition curve.

Experimental findings from patent publication US11034661B2, “Substituted N′-hydroxycarbamimidoyl-1,2,5-oxadiazole compounds as indoleamine 2,3-dioxygenase IDO inhibitors” (Merck Sharp & Dohme Corp., priority 2017, dated 2021) are described below.

One test concerns the target HIS-tagged IDO1 protein (Homo sapiens (Human), UniProt P14902). The experiment in a line: IDO1 Enzyme Assay. Type of test: biochemical. The note with it: recombinant IDO1 40 nM, tryptophan substrate, fluorescence readout. How it is done: Biological Assays IDO1 Enzyme Assay
Compounds to be tested were serially diluted in ten 3-fold steps in DMSO starting from 10 mM DMSO stocks. Compound dilutions or DMSO alone were then dispensed from the dilution plate into a Greiner black 384-well assay plate (catalog #781086) using an Echo 555 acoustic liquid handler (Labcyte).
HIS-tagged IDO1 protein was recombinantly expressed in Escherichia coli using ZYP5052 autoinduction media supplemented with 500 μM delta aminolevulinic acid for 48 hours at 16 degrees Celsius. IDO1 protein was purified using Ni^2+-affinity resin and size exclusion chromatography. Purified protein was then diluted in assay buffer (50 mM Tris pH 7.0, 1% glycerol, 20 μM methylene blue, 0.05% Tween-20, 20 mM sodium ascorbate, 100 units/mL catalase to obtain a final IDO1 concentration of 40 nM. IDO1 solution […] or buffer alone […] was dispensed to wells of the assay plate using a BioRAPTR liquid dispenser (Beckman Coulter). Assay plates containing compound and IDO1 enzyme were incubated at room temperature for 30 minutes. Afterwards, 10 μL of 400 μM tryptophan in assay buffer were added to each well of the assay plate using a BioRAPTR liquid dispenser. Plates were incubated at room temperature for 60 minutes and reactions were quenched by addition of 10 μL of 0.5 M methyl isonipecotate in dimethyl sulfoxide. Plates were sealed and incubated at 37 degrees Celsius for 4 hours or 50 degrees Celsius for 2 hours. The plates are allowed to cool and then centrifuged for 1 minute at 1000×g. The resulting fluorescence was measured in an Envision plate reader (Perkin Elmer) with a 400/25 nm excitation filter and an 510/20 nm emission filter.
Potencies were calculated by linear least squares fit to the four parameter logistic IC50 equation.

Test [1] concerns the target IDO1 in Hela cells stimulated with IFNγ (Homo sapiens (Human), UniProt P14902). Kind of test: IDO1 Cellular Assay in Hela Cells Stimulated with IFNγ. Type of test: cell-based. The settings on record: IFNγ 100 ng/mL, about 48 hours, fluorescence readout, read-out: IDO1 HELA Cell Assay, IC50. How it is done:
IDO1 Cellular Assay in Hela Cells Stimulated with IFNγ
Hela cells were cultured in complete Hela culture medium (90% EMEM, 10% heat-inactivated fetal bovine serum) and expanded to about 1×10^9 cells. The cells were then collected and frozen down at 10×10^6 cells/vial in 1 mL frozen medium (90% complete Hela culture medium, 10% DMSO)
Compounds to be tested were serially diluted in ten 3-fold steps in DMSO starting from 10 mM DMSO stocks in Echo low volume plate(s). Compound dilutions or DMSO alone were then dispensed from the dilution plate(s) into Greiner black 384-well assay plate(s) (catalog #781086, 50 nL/well) using an Echo 550 acoustic liquid handler (Labcyte).
Frozen Hela cells were thawed and transferred into Hela assay medium (99% complete Hela culture medium, 1% Pen/Strep) with 20 mL medium/vial of cells. The cells were spun down at 250 g in a table top centrifuge for 5 min and suspended in same volume of Hela assay medium. The cells were then counted and adjusted to a density of 2×10^5 cells/ml in Hela assay medium. Sterile L-tryptophan were added to the cells with final concentration of 300 uM L-tryptophan. A small aliquot (2 mL/plate) of Hela cells were set aside and were not treated with IFNγ, to serve as the Max-E control. The rest of Hela cells were added with sterile IFNγ (Cat #285-IF, R & D systems) with a final concentration of 100 ng/mL.
Hela cells with and without IFNγ were dispensed to the respective wells of 384-well assay plates containing the compounds. The plates were incubated for about 48 hours at a 37° C., 5% CO2 incubator. Afterwards, 12 μL of 0.5 M methyl isonipecotate in dimethyl sulfoxide were added into each well and the plates were sealed and incubated at 37° C. without CO2 overnight. The plates were centrifuged for 1 min at 200×g. The resulting fluorescence was measured in a Spectramax plate reader (Molecular Devices) with a 400 nm excitation filter and a 510 nm emission filter.
The fluorescence intensity of each well was corrected for the background observed in wells with non-IFNγ-treated cells and was expressed as a fraction of the intensity observed in wells of IFNγ-treated cells and DMSO only. Potencies were calculated by linear least squares fit to the four parameter logistic IC50 equation.

The structures appear in SMILES notation.

Sequence of HIS-tagged IDO1 protein (P14902 whole entry): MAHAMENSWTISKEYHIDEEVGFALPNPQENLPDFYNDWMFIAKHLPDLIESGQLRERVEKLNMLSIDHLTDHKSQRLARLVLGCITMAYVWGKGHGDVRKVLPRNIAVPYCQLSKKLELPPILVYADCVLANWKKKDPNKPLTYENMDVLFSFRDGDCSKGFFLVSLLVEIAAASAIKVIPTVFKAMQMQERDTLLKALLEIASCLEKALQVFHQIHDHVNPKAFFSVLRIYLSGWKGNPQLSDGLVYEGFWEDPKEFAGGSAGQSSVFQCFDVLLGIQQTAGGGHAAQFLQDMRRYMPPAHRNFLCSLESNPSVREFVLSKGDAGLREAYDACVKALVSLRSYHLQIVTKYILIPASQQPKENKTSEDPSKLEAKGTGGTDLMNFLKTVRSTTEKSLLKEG
Sequence of IDO1 in Hela cells stimulated with IFNγ (P14902 whole entry): as above

Turning to `O/N=C(\N[C@H]1Cc2ccc(F)cc21)c1nonc1OCCn1cnnc1` [Example 28, N-[(7S)-4-fluorobicyclo[4.2.0]octa-1,3,5-trien-7-yl]-N′-hydroxy-4-[2-(4H-1,2,4-triazol-4-yl)ethoxy]-1,2,5-oxadiazole-3-carboximidamide], the values for the IC50 (at HIS-tagged IDO1 protein; in test [1]) were 396 nM and 561 nM, respectively.

Turning to `NS(=O)(=O)CCCOc1nonc1/C(=N/O)N[C@H]1Cc2ccc(F)cc21` [Example 29, N-[(7S)-4-fluorobicyclo[4.2.0]octa-1,3,5-trien-7-yl]-N′-hydroxy-4-(3-sulfamoylpropoxy)-1,2,5-oxadiazole-3-carboximidamide], the IC50 turned out to be 73.1 nM on HIS-tagged IDO1 protein and 147 nM in test [1].

For `NS(=O)(=O)N1CC[C@@H](Oc2nonc2/C(=N/O)N[C@H]2Cc3ccc(F)cc32)C1` [Example 31, N-[(7S)-4-fluorobicyclo[4.2.0]octa-1,3,5-trien-7-yl]-N′-hydroxy-4-{[(3R)-1-sulfamoylpyrrolidin-3-yl]oxy}-1,2,5-oxadiazole-3-carboximidamide], the IC50 on HIS-tagged IDO1 protein worked out at 747 nM; in test [1], 750 nM.

`NS(=O)(=O)N1CC[C@H](Oc2nonc2/C(=N/O)N[C@H]2Cc3ccc(F)cc32)C1` [Example 32, N-[(7S)-4-fluorobicyclo[4.2.0]octa-1,3,5-trien-7-yl]-N′-hydroxy-4-{[(3S)-1-sulfamoylpyrrolidin-3-yl]oxy}-1,2,5-oxadiazole-3-carboximidamide]: the IC50 at HIS-tagged IDO1 protein was 308 nM; in test [1] it was 340 nM.

On to `NS(=O)(=O)CCOc1nonc1/C(=N/O)N[C@H]1Cc2ccc(F)cc21` [Example 34, N-[(7S)-4-fluorobicyclo[4.2.0]octa-1,3,5-trien-7-yl]-N′-hydroxy-4-(2-sulfamoylethoxy)-1,2,5-oxadiazole-3-carboximidamide], for which the IC50 at HIS-tagged IDO1 protein turned out to be 289 nM; in test [1], 870 nM.

With `CC(C)(COc1nonc1/C(=N/O)N[C@H]1Cc2ccc(F)cc21)NC(=O)CO` [Example 35, N-{1-[(4-{N-[(7S)-4-fluorobicyclo[4.2.0]octa-1,3,5-trien-7-yl]-N′-hydroxycarbamimidoyl}-1,2,5-oxadiazol-3-yl)oxy]-2-methylpropan-2-yl}-2-hydroxyacetamide], the IC50 on HIS-tagged IDO1 protein worked out at 2150 nM; in test [1], 2030 nM.

In the case of `CC(=O)N[C@H]1C[C@H](Oc2nonc2/C(=N/O)N[C@H]2Cc3ccc(F)cc32)C1` [Example 37, N-{trans-3-[(4-{N-[(7S)-4-fluorobicyclo[4.2.0]octa-1,3,5-trien-7-yl]-N′-hydroxycarbamimidoyl}-1,2,5-oxadiazol-3-yl)oxy]cyclobutyl}acetamide], the figures for the IC50 (at HIS-tagged IDO1 protein; in test [1]) were 83.4 nM and 91.3 nM, respectively.

Turning to `CC(=O)NC(CO)COc1nonc1/C(=N/O)N[C@H]1Cc2ccc(F)cc21` (stereo partly drawn) [Example 39, N-{1-[(4-{N-[(7S)-4-fluorobicyclo[4.2.0]octa-1,3,5-trien-7-yl]-N′-hydroxycarbamimidoyl}-1,2,5-oxadiazol-3-yl)oxy]-3-hydroxypropan-2-yl}acetamide], the IC50 on HIS-tagged IDO1 protein was 334 nM; in test [1], 446 nM.

`CC(=O)NC[C@H](C)Oc1nonc1/C(=N/O)N[C@H]1Cc2ccc(F)cc21` [Example 40, N-{(2S)-2-[(4-{N-[(7S)-4-fluorobicyclo[4.2.0]octa-1,3,5-trien-7-yl]-N′-hydroxycarbamimidoyl}-1,2,5-oxadiazol-3-yl)oxy]propyl}acetamide]: the IC50 at HIS-tagged IDO1 protein amounted to 2380 nM; in test [1] it was 1040 nM.

Regarding `COC(=O)NCCOc1nonc1/C(=N/O)N[C@H]1Cc2ccc(F)cc21` [Example 41, methyl {2-[(4-{N-[(7S)-4-fluorobicyclo[4.2.0]octa-1,3,5-trien-7-yl]-N′-hydroxycarbamimidoyl}-1,2,5-oxadiazol-3-yl)oxy]ethyl}carbamate], the IC50 at HIS-tagged IDO1 protein was found to be 141 nM; in test [1] it was 181 nM.

Consider `O=C(COc1nonc1/C(=N/O)N[C@H]1Cc2ccc(F)cc21)N1CC[C@@H](O)C1` [Example 44, N-[(7S)-4-fluorobicyclo[4.2.0]octa-1,3,5-trien-7-yl]-N′-hydroxy-4-{2-[(3R)-3-hydroxypyrrolidin-1-yl]-2-oxoethoxy}-1,2,5-oxadiazole-3-carboximidamide], for which the IC50 at HIS-tagged IDO1 protein was 866 nM; in test [1] it was 1310 nM.

With `O=C(COc1nonc1/C(=N/O)N[C@H]1Cc2ccc(F)cc21)N1CC[C@H](O)C1` [Example 45, N-[(7S)-4-fluorobicyclo[4.2.0]octa-1,3,5-trien-7-yl]-N′-hydroxy-4-{2-[(3S)-3-hydroxypyrrolidin-1-yl]-2-oxoethoxy}-1,2,5-oxadiazole-3-carboximidamide], the half-maximal inhibitory concentration (IC50) at HIS-tagged IDO1 protein came out at 990 nM; in test [1], 1280 nM.

Take `C[C@@H](CNC(=O)CO)Oc1nonc1/C(=N/O)N[C@H]1Cc2ccc(F)cc21` [Example 46, N-{(2S)-2-[(4-{N-[(7S)-4-fluorobicyclo[4.2.0]octa-1,3,5-trien-7-yl]-N′-hydroxycarbamimidoyl}-1,2,5-oxadiazol-3-yl)oxy]propyl}-2-hydroxyacetamide]: the IC50 at HIS-tagged IDO1 protein was 2450 nM; in test [1], 1640 nM.

Turning to `NS(=O)(=O)N1CCC(Oc2nonc2/C(=N/O)N[C@H]2Cc3ccc(F)cc32)CC1` [Example 49, N-[(7S)-4-fluorobicyclo[4.2.0]octa-1,3,5-trien-7-yl]-N′-hydroxy-4-[(1-sulfamoylpiperidin-4-yl)oxy]-1,2,5-oxadiazole-3-carboximidamide], the results for the IC50 (on HIS-tagged IDO1 protein; in test [1]) were 10700 nM and 7310 nM, respectively.

Consider `O=C(CO)N1CCC(Oc2nonc2/C(=N/O)N[C@H]2Cc3ccc(F)cc32)CC1` [Example 50, N-[(7S)-4-fluorobicyclo[4.2.0]octa-1,3,5-trien-7-yl]-N′-hydroxy-4-{[1-(hydroxyacetyl)piperidin-4-yl]oxy}-1,2,5-oxadiazole-3-carboximidamide], for which the figures for the IC50 (at HIS-tagged IDO1 protein; in test [1]) were 516 nM and 822 nM, respectively.

With `CC(=O)N[C@H](CO)COc1nonc1/C(=N/O)N[C@H]1Cc2ccc(F)cc21` [Example 51, N-{(2R)-1-[(4-{N-[(7S)-4-fluorobicyclo[4.2.0]octa-1,3,5-trien-7-yl]-N′-hydroxycarbamimidoyl}-1,2,5-oxadiazol-3-yl)oxy]-3-hydroxypropan-2-yl}acetamide], the values for the IC50 (on HIS-tagged IDO1 protein; in test [1]) were 1070 nM and 1340 nM, respectively.

Turning to `CC(=O)N[C@@H](CO)COc1nonc1/C(=N/O)N[C@H]1Cc2ccc(F)cc21` [Example 52, N-{(2S)-1-[(4-{N-[(7S)-4-fluorobicyclo[4.2.0]octa-1,3,5-trien-7-yl]-N′-hydroxycarbamimidoyl}-1,2,5-oxadiazol-3-yl)oxy]-3-hydroxypropan-2-yl}acetamide], the IC50 on HIS-tagged IDO1 protein turned out to be 1810 nM; in test [1], 1290 nM.

For the compound `CC(=O)NC[C@H](O)COc1nonc1/C(=N/O)N[C@H]1Cc2ccc(F)cc21` [Example 53, N-{(2S)-3-[(4-{N-[(7S)-4-fluorobicyclo[4.2.0]octa-1,3,5-trien-7-yl]-N′-hydroxycarbamimidoyl}-1,2,5-oxadiazol-3-yl)oxy]-2-hydroxypropyl}acetamide], the IC50 was determined as 216 nM on HIS-tagged IDO1 protein and 328 nM in test [1].

As for `O=C(CO)N1CC[C@H]1COc1nonc1/C(=N/O)N[C@H]1Cc2ccc(F)cc21` [Example 54, N-[(7S)-4-fluorobicyclo[4.2.0]octa-1,3,5-trien-7-yl]-N′-hydroxy-4-{[(2S)-1-(hydroxyacetyl)azetidin-2-yl]methoxy}-1,2,5-oxadiazole-3-carboximidamide], the IC50 came out at 1490 nM at HIS-tagged IDO1 protein and 1340 nM in test [1].
